# Results taken from ChEMBL document CHEMBL1136991, “Novel potent BRAF inhibitors: toward 1 nM compounds through optimization of the central phenyl ring” (J Med Chem, 2009).
# Experiments:
# [1] = biological target: RAC-beta serine/threonine-protein kinase (Homo sapiens) (UniProt P31751); assay: Inhibition of PKBbeta at 1 uM relative to control
# [2] = biological target: T1, Dual specificity tyrosine-phosphorylation-regulated kinase 3 (Homo sapiens) (UniProt O43781); assay: Inhibition of DYRK3 at 1 uM relative to control
# T1 sequence (whole entry): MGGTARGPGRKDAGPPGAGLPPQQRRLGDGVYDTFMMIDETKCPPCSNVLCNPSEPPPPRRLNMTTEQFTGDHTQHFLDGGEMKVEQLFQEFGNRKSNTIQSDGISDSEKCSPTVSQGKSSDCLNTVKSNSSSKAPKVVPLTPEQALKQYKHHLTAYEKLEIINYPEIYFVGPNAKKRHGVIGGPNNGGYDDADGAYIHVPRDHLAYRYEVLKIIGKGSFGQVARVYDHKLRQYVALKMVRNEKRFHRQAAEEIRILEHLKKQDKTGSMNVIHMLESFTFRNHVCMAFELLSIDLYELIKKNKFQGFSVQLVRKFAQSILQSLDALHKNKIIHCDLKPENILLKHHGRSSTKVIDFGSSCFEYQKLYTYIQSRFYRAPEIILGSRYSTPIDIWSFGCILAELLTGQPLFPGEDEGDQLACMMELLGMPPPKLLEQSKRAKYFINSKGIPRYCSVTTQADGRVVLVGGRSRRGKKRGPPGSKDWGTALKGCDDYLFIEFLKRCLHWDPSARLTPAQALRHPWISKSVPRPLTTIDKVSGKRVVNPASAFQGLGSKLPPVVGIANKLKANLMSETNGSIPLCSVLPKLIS
# [3] = biological target: Serine/threonine-protein kinase N2 (Homo sapiens) (UniProt Q16513); assay: Inhibition of PRK2 at 1 uM relative to control
# [4] = biological target: Serine/threonine-protein kinase pim-2 (Homo sapiens) (UniProt Q9P1W9); assay: Inhibition of PIM2 at 1 uM relative to control
# [5] = Inhibition of PKA at 1 uM relative to control
# [6] = biological target: T2, Serine/threonine-protein kinase Sgk1 (Homo sapiens) (UniProt O00141); assay: Inhibition of SGK1 at 1 uM relative to control
# T2 sequence (whole entry): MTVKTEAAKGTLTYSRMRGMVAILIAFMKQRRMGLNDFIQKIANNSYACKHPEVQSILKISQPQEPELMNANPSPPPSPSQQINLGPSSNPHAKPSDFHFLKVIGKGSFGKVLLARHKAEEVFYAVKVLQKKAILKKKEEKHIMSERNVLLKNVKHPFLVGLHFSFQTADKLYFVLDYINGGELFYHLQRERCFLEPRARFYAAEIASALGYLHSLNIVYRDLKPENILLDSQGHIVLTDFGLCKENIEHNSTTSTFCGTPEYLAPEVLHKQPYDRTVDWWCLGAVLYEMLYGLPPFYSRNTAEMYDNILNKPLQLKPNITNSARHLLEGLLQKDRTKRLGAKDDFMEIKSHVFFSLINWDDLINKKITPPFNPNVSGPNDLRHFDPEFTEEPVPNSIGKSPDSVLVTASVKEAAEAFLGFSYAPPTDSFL
# [7] = biological target: Mitogen-activated protein kinase 9 (Homo sapiens) (UniProt P45984); assay: Inhibition of JNK2 at 1 uM relative to control
# [8] = biological target: Ribosomal protein S6 kinase alpha-5 (Homo sapiens) (UniProt O75582); assay: Inhibition of MSK1 at 1 uM relative to control
# Ribosomal protein S6 kinase alpha-5 (Homo sapiens), sequence (O75582 whole entry, looked up): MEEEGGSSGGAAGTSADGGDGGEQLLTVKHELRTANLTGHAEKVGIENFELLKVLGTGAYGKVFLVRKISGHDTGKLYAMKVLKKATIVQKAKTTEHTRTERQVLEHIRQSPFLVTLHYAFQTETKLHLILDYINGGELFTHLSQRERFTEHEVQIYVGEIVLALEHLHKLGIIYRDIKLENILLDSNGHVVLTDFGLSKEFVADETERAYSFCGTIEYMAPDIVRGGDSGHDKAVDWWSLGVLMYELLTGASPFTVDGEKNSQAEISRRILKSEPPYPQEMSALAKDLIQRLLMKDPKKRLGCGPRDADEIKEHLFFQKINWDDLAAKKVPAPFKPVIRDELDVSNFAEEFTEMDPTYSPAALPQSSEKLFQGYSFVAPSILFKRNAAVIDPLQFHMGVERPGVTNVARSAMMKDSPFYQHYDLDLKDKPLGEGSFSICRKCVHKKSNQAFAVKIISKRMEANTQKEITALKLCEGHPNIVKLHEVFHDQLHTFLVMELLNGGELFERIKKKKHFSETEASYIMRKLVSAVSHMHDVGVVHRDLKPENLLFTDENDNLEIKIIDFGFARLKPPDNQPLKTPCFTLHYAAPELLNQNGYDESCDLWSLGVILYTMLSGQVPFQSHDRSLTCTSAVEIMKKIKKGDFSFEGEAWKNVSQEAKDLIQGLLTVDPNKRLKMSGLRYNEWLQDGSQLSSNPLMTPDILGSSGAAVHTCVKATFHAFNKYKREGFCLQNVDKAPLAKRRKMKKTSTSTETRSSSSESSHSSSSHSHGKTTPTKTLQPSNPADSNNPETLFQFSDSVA
# RAC-beta serine/threonine-protein kinase (Homo sapiens), sequence (P31751 whole entry): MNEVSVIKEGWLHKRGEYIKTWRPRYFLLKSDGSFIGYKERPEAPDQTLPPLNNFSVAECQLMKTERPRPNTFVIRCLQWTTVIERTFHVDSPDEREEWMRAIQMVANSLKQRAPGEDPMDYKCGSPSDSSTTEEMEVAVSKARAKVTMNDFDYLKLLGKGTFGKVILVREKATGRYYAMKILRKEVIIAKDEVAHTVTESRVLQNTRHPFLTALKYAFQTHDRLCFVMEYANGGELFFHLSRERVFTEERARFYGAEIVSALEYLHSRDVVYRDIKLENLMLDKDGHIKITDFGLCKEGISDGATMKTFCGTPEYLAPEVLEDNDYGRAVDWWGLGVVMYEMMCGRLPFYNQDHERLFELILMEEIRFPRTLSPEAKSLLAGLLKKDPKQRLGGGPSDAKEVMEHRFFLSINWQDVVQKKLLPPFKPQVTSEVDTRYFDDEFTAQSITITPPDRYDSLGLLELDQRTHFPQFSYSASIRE
# Mitogen-activated protein kinase 9 (Homo sapiens), sequence (P45984 whole entry, looked up): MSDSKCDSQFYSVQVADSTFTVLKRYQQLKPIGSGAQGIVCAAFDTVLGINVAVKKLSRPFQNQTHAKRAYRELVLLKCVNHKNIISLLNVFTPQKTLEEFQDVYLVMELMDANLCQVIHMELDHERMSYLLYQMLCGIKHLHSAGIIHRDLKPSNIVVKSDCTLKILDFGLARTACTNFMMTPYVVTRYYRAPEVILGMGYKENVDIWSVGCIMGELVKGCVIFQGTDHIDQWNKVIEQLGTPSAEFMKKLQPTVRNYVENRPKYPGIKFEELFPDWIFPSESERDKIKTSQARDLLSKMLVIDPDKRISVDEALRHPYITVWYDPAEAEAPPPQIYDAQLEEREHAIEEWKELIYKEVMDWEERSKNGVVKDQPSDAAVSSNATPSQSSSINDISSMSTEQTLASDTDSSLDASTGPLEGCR
# Serine/threonine-protein kinase N2 (Homo sapiens), sequence (Q16513 whole entry, looked up): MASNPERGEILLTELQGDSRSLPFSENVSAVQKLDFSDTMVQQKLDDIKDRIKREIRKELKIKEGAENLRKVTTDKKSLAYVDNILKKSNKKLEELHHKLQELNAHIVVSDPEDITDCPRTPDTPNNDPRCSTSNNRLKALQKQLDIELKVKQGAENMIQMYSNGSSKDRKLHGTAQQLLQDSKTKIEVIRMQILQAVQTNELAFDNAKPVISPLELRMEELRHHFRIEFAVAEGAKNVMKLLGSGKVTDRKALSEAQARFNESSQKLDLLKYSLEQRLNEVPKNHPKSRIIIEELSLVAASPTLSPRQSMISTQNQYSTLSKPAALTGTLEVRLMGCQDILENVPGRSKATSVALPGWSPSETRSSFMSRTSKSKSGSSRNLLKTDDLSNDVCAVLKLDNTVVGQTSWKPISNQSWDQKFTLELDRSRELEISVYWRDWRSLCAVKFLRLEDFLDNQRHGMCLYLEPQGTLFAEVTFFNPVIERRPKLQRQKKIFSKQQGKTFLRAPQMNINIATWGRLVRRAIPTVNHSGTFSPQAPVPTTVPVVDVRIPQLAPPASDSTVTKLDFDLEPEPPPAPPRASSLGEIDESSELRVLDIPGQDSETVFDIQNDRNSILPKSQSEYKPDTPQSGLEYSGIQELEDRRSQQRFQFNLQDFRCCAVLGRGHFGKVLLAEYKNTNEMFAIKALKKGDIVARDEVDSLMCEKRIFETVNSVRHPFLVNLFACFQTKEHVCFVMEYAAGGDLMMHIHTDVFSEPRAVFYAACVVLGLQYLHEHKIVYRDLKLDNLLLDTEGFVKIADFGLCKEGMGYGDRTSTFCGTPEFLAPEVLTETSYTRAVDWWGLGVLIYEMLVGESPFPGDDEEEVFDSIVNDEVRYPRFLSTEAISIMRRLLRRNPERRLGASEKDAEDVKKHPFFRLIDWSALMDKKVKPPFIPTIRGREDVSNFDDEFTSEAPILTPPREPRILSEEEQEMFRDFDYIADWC
# Serine/threonine-protein kinase pim-2 (Homo sapiens), sequence (Q9P1W9 whole entry, looked up): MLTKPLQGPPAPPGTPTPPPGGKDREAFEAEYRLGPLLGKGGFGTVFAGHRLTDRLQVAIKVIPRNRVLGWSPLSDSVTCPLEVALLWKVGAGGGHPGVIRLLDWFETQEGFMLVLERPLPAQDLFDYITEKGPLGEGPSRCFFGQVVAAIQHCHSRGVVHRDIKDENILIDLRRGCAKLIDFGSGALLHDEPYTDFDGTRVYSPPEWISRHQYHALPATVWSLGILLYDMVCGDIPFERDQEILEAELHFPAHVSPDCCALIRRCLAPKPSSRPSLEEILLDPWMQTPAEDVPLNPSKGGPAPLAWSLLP
Structure (SMILES),residual activity [1],residual activity [2],residual activity [3],residual activity [4],residual activity [5],residual activity [6],residual activity [7],residual activity [8]
O=C(Nc1cc(C(F)(F)F)ccc1F)Nc1ccc(Oc2ccnc3[nH]c(=O)[nH]c23)c2ccccc12,100%,100%,100%,100%,75%,100%,50%,75%
CSc1cc(Oc2ccnc3[nH]c(=O)[nH]c23)ccc1NC(=O)Nc1cccc(C(F)(F)F)c1,100%,75%,100%,100%,100%,100%,100%,100%
CC(C)(C)c1cccc(NC(=O)Nc2ccc(Oc3ccnc4[nH]c(=O)[nH]c34)c3ccccc23)c1,75%,75%,100%,100%,75%,100%,< 25%,75%
